Experiment [1] has as its target T1, BRD4 Bromodomain 1 (BRD4 BD1) (Homo sapiens, UniProt O60885).
T1 construct: 44-168 and BRD4 BD2
Briefly: AlphaScreen binding assay, BRD4 BD1. The settings on record: His-tagged BRD4 BD1 50 nM, biotinylated H4 (1-21) K5/8/12/16 tetra-acetylated peptide 50 nM, compounds listed under IC50 range headings. Summed up:
(§1)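 An AlphaScreen competition format was used with His-BRD4 BD1 or BD2 and biotin-H4 K5/8/12/16-acetyl peptide, each at matched final levels of 50 nM (BD1) or 100 nM (BD2). Incubation in HEPES/NaCl buffer with 0.1% BSA and 0.01% Triton X-100 ran ≥1 h before IC50 determination.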
In general terms: Bead proximity is the source of the signal in Alpha formats.

The target of experiment [2] is T2, BRD4 Bromodomain 2 (BRD4 BD2) (Homo sapiens, UniProt O60885).
T2 construct: 333-460 were cloned, expressed, and purified to homogeneity
Briefly: AlphaScreen binding assay, BRD4 BD2. The settings on record: His-tagged BRD4 BD2 100 nM, biotinylated H4 (1-21) K5/8/12/16 tetra-acetylated peptide 100 nM, compounds listed under IC50 range headings. The gist of the method: as §1

Experiment [3] deals with acute myelocytic leukemia (AML) cell line MV4-11. Nature of the experiment: Oncology cell growth assay (3-day proliferation, CellTiter-Glo). The experiment is classed as cell-based. The settings on record: Homo sapiens, MV4-11, 72 h, MV4-11 cells, 3000 cells/well, compounds listed under IC50 range headings, read-out: MV411 IC50 (gIC50, inhibition of proliferation). The gist of the method: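 MV4-11 AML cells (RPMI 1640, 10% FBS) plated at 3000 cells/well and exposed 72 h to compound at final 10 to 0.0045 μM (3-fold series). Viability read by CellTiter-Glo luminescence; gIC50 from four-parameter logistic fit between DMSO control and no-cell background.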
On the technique in general: In ATP-based viability assays light output follows the ATP content of the culture.

Where only a bound is given, the exact number is not on record here.

Take `COC(=O)N1c2ccc(-c3cnn(CCO)c3)c(Oc3cnccn3)c2CC[C@@H]1C` [I-560]: the IC50 in experiment [1] was 1000 to 10000 nM; in experiment [2], 50 to 500 nM; in experiment [3], 500 to 1000 nM.
On to `COC(=O)N1c2ccc(-c3cnn(C4CC4)c3)c(Oc3cnccn3)c2CC[C@@H]1C` [I-561], for which the IC50 lay in the range of 1000 to 10000 nM in experiment [1], 50 to 500 nM in experiment [2] and 500 to 1000 nM in experiment [3].
`COC(=O)N1c2ccc(-c3cnn(CCS(C)(=O)=O)c3)c(Oc3ncccc3C(F)(F)F)c2CC[C@@H]1C` [I-562]: the IC50 in experiment [1] fell in the range of 1000 to 10000 nM; in experiment [2] it was 50 to 500 nM; in experiment [3], 500 to 1000 nM.
The corresponding values for `COC(=O)N1c2ccc(-c3cnn(CC(C)(C)O)c3)c(Oc3ncccc3C(F)(F)F)c2CC[C@@H]1C` [I-563] are 1000 to 10000 nM, under 50 nM and over 1000 nM.
For `COC(=O)N1c2ccc(-c3cnn(CCO)c3)c(Oc3ncccc3C(F)(F)F)c2CC[C@@H]1C` [I-564], in that order: 1000 to 10000 nM, 50 to 500 nM and 500 to 1000 nM.
For `COC(=O)N1c2ccc(-c3cnn(C4CC4)c3)c(Oc3ncccc3C(F)(F)F)c2CC[C@@H]1C` [I-565], in that order: 1000 to 10000 nM, 50 to 500 nM and 500 to 1000 nM.
For `COC(=O)N1c2ccc(-c3cnn(CCS(C)(=O)=O)c3)c(Oc3ncccc3C#N)c2CC[C@@H]1C` [I-566], the IC50 in experiment [1] is 1000 to 10000 nM; in experiment [2], 50 to 500 nM; in experiment [3] it was over 1000 nM.
Regarding `COC(=O)N1c2ccc(-c3cnn(CC(C)(C)O)c3)c(Oc3ncccc3C#N)c2CC[C@@H]1C` [I-567], the IC50 in experiment [1] fell in the range of 1000 to 10000 nM; in experiment [2], 50 to 500 nM; in experiment [3], 500 to 1000 nM.
For `COC(=O)N1c2ccc(-c3cnn(CCO)c3)c(Oc3ncccc3C#N)c2CC[C@@H]1C` [I-568], in that order: 1000 to 10000 nM, 50 to 500 nM and under 500 nM.
For `COC(=O)N1c2ccc(-c3cnn(C4CC4)c3)c(Oc3ncccc3C#N)c2CC[C@@H]1C` [I-569], the values for the IC50 in experiment [1], in experiment [2] and in experiment [3] were 1000 to 10000 nM, 50 to 500 nM and under 500 nM, respectively.
With `COC(=O)N1c2ccc(-c3cnn(CCS(C)(=O)=O)c3)c(Oc3ncc(C4CC4)cn3)c2CC[C@@H]1C` [I-570], the IC50 in experiment [1] is 1000 to 10000 nM; in experiment [2] it was 50 to 500 nM; in experiment [3], over 1000 nM.
On to `COC(=O)N1c2ccc(-c3cnn(CC(C)(C)O)c3)c(Oc3ncc(C4CC4)cn3)c2CC[C@@H]1C` [I-571], for which the IC50 in experiment [1] was in the range of 1000 to 10000 nM; in experiment [2] it was 50 to 500 nM; in experiment [3] it was 500 to 1000 nM.
As for `COC(=O)N1c2ccc(-c3cnn(CCO)c3)c(Oc3ncc(C4CC4)cn3)c2CC[C@@H]1C` [I-572], the values for the IC50 in experiment [1], in experiment [2] and in experiment [3] were 1000 to 10000 nM, 50 to 500 nM and under 500 nM, respectively.
Take `COC(=O)N1c2ccc(-c3cnn(C4CC4)c3)c(Oc3ncc(C4CC4)cn3)c2CC[C@@H]1C` [I-573]: the IC50 in experiment [1] was in the range of 1000 to 10000 nM; in experiment [2], 50 to 500 nM; in experiment [3] it was 500 to 1000 nM.
Turning to `COC(=O)N1c2ccc(-c3cnn(CCS(C)(=O)=O)c3)c(Oc3ncc(F)cn3)c2CC[C@@H]1C` [I-574], the IC50 in experiment [1] was in the range of 1000 to 10000 nM; in experiment [2], 50 to 500 nM; in experiment [3], 500 to 1000 nM.
With `COC(=O)N1c2ccc(-c3cnn(CC(C)(C)O)c3)c(Oc3ncc(F)cn3)c2CC[C@@H]1C` [I-575], the values for the IC50 in experiment [1], in experiment [2] and in experiment [3] were 1000 to 10000 nM, 50 to 500 nM and 500 to 1000 nM, respectively.
Turning to `COC(=O)N1c2ccc(-c3cnn(CCO)c3)c(Oc3ncc(F)cn3)c2CC[C@@H]1C` [I-576], the results for the IC50 in experiment [1], in experiment [2] and in experiment [3] were 1000 to 10000 nM, at least 500 nM and over 1000 nM, respectively.
For the molecule `COC(=O)N1c2ccc(-c3cnn(C4CC4)c3)c(Oc3ncc(F)cn3)c2CC[C@@H]1C` [I-577], the IC50 is 1000 to 10000 nM in experiment [1], 50 to 500 nM in experiment [2] and under 500 nM in experiment [3].
For `COC(=O)N1c2ccc(-c3cnn(CCS(C)(=O)=O)c3)c(Oc3ncc(C(F)(F)F)cn3)c2CC[C@@H]1C` [I-578], in that order: 1000 to 10000 nM, 50 to 500 nM and over 1000 nM.
For `COC(=O)N1c2ccc(-c3cnn(CC(C)(C)O)c3)c(Oc3ncc(C(F)(F)F)cn3)c2CC[C@@H]1C` [I-579], in that order: 1000 to 10000 nM, 50 to 500 nM and over 1000 nM.
As to `COC(=O)N1c2ccc(-c3cnn(CCO)c3)c(Oc3ncc(C(F)(F)F)cn3)c2CC[C@@H]1C` [I-580], the IC50 fell in the range of 1000 to 10000 nM in experiment [1], 50 to 500 nM in experiment [2] and 500 to 1000 nM in experiment [3].
Consider `COC(=O)N1c2ccc(-c3cnn(C4CC4)c3)c(Oc3ncc(C(F)(F)F)cn3)c2CC[C@@H]1C` [I-581], for which the IC50 in experiment [1] was 1000 to 10000 nM; in experiment [2], 50 to 500 nM; in experiment [3], over 1000 nM.
For `COC(=O)N1c2ccc(-c3cnn(CCS(C)(=O)=O)c3)c(Oc3ncc(C)cn3)c2CC[C@@H]1C` [I-582], the IC50 in experiment [1] was 1000 to 10000 nM; in experiment [2], 50 to 500 nM; in experiment [3], over 1000 nM.
The corresponding values for `COC(=O)N1c2ccc(-c3cnn(CC(C)(C)O)c3)c(Oc3ncc(C)cn3)c2CC[C@@H]1C` [I-583] are 1000 to 10000 nM, 50 to 500 nM and under 500 nM.
For `COC(=O)N1c2ccc(-c3cnn(CCO)c3)c(Oc3ncc(C)cn3)c2CC[C@@H]1C` [I-584], in that order: 1000 to 10000 nM, 50 to 500 nM and 500 to 1000 nM.
Regarding `COC(=O)N1c2ccc(-c3cnn(C4CC4)c3)c(Oc3ncc(C)cn3)c2CC[C@@H]1C` [I-585], the IC50 in experiment [1] is 100 to 1000 nM; in experiment [2], 50 to 500 nM; in experiment [3], under 500 nM.
In the case of `COC(=O)N1c2ccc(-c3cnn(CCS(C)(=O)=O)c3)c(Oc3ncccc3C(N)=O)c2CC[C@@H]1C` [I-586], the IC50 in experiment [1] was 1000 to 10000 nM; in experiment [2] it was 50 to 500 nM; in experiment [3] it was over 1000 nM.
In the case of `COC(=O)N1c2ccc(-c3cnn(C4CC4)c3)c(Oc3ncccc3C(N)=O)c2CC[C@@H]1C` [I-587], the IC50 in experiment [1] fell in the range of 1000 to 10000 nM; in experiment [2], 50 to 500 nM; in experiment [3], 500 to 1000 nM.
For `COC(=O)N1c2ccc(-c3cnn(CCS(C)(=O)=O)c3)c(Oc3ncc(C(F)(F)F)cc3F)c2CC[C@@H]1C` [I-588], the IC50 is 1000 to 10000 nM in experiment [1], 50 to 500 nM in experiment [2] and over 1000 nM in experiment [3].
For `COC(=O)N1c2ccc(-c3cnn(CC(C)(C)O)c3)c(Oc3ncc(C(F)(F)F)cc3F)c2CC[C@@H]1C` [I-589], the results for the IC50 in experiment [1], in experiment [2] and in experiment [3] were 1000 to 10000 nM, 50 to 500 nM and 500 to 1000 nM, respectively.
`COC(=O)N1c2ccc(-c3cnn(CCO)c3)c(Oc3ncc(C(F)(F)F)cc3F)c2CC[C@@H]1C` [I-590]: the IC50 in experiment [1] lay within 1000 to 10000 nM; in experiment [2], 50 to 500 nM; in experiment [3], 500 to 1000 nM.
Turning to `COC(=O)N1c2ccc(-c3cnn(C4CC4)c3)c(Oc3ncc(C(F)(F)F)cc3F)c2CC[C@@H]1C` [I-591], the IC50 was in the range of 1000 to 10000 nM in experiment [1], 50 to 500 nM in experiment [2] and 500 to 1000 nM in experiment [3].
Consider `CC(=O)N1c2ccc(-c3cnn(C4CC4)c3)c(Oc3ccccc3)c2CC[C@@H]1C` [I-594], for which the IC50 in experiment [1] was 100 to 1000 nM; in experiment [2] it was under 50 nM; in experiment [3] it was under 500 nM.
For the molecule `CC(=O)N1c2ccc(-c3cnn(C4CC4)c3)c(Oc3ccc(C(=O)N(C)C)cc3)c2CC[C@@H]1C` [I-595], the IC50 in experiment [1] was 100 to 1000 nM; in experiment [2], 50 to 500 nM; in experiment [3], under 500 nM.
With `COC(=O)N1c2ccc(-c3cnn(C4CCNCC4)c3)c(Oc3cccc(C#N)c3)c2CC[C@@H]1C` [I-596], the values for the IC50 in experiment [1], in experiment [2] and in experiment [3] were 1000 to 10000 nM, 50 to 500 nM and under 500 nM, respectively.
The corresponding values for `CC(=O)N1c2ccc(-c3cnn(C4CC4)c3)c(Oc3ccccc3)c2CCC1C` (stereo not drawn) [I-597] are 1000 to 10000 nM, 50 to 500 nM and under 500 nM.
Consider `CC1CCc2c(ccc(-c3cnn(C4CC4)c3)c2Oc2ccccc2)N1C(=O)C1CC1` (stereo not drawn) [I-598], for which the IC50 in experiment [1] was 100 to 1000 nM; in experiment [2], 50 to 500 nM; in experiment [3], under 500 nM.
Take `COC(=O)N1c2ccc(-c3cnn(C4CC4)c3)c(Oc3ccccc3)c2CCC1C` (stereo not drawn) [I-599]: the IC50 in experiment [1] was 1000 to 10000 nM; in experiment [2], 50 to 500 nM; in experiment [3], under 500 nM.
As to `CC(=O)N1c2ccc(-c3cnn(C4COC4)c3)c(OC[C@@H]3CCNC3)c2CC[C@@H]1C` [I-600], the IC50 is 100 to 1000 nM in experiment [1], 50 to 500 nM in experiment [2] and over 1000 nM in experiment [3].
The corresponding values for `CC(=O)N1c2ccc(-c3cnn(C4CC4)c3)c(OC[C@@H]3CCNC3)c2CC[C@@H]1C` [I-602] are 100 to 1000 nM, 50 to 500 nM and 500 to 1000 nM.
In the case of `CC(=O)N1c2ccc(-c3cnn(C4CC4)c3)c(OC[C@H]3CCNC3)c2CC[C@@H]1C` [I-603], the IC50 in experiment [1] was 100 to 1000 nM; in experiment [2], 50 to 500 nM; in experiment [3], over 1000 nM.
